Laboratory results published in EP2924040A1, “2-Amino-1-(o-tolyl)pyrrolo[3,2-b]quinoxaline-3-carboxamide derivates” (Universität Zürich, priority 2014, dated 2015).
pIC50: −log10 of the molar value.

Experiments:
Type in all cases: cell-based
K562 = test: Cell culture and GI50 determination (resazurin); details: Homo sapiens, K562, 48 hour incubation
Description: MDA-MB-231 (breast cancer) and KM12 (colon cancer) cells obtained from the UZH Cancer Institute, HOP-92 (lung cancer) cells purchased from the National Cancer Institute (NCl) and A498 (kidney cancer) cells obtained from Prof. Krek (Institute of Cell Biology, ETH Zurich) were cultured in Dulbecco's modified Eagle's medium (DMEM) supplemented with 10% (v/v) fetal bovine serum. K562 leukemia cells obtained from Dr. Silvio Hemmi (Institute of Molecular Life Sciences, UZH) were cultured using RPMI medium supplemented with 5% (v/v) fetal bovine serum. All the media was additionally supplemented with 100 units/mL of penicillin, 100µg/mL of streptomycin, 4.5 g/L glucose, 0.11g/L sodium pyrubate and 2mM glutamine and the cells were grown at 37 °C in 5% CO2 atmosphere with 80% relative humidity.
In the case of K-562 leukemia cells, these were seeded at a density of 20,000 cells per well in 100µL of RMPI media in a 96 well microtiter plates. […] After 48 hour incubation, cell viability was assessed by measuring the ability of the cells to process resazurin. Resazurin was added to every well to obtain a final concentration of 86nmol/L, and after 3 hours, the fluorescence was quantified using a fluorescence microplate reader (Biotek, FLx800™) at the respective excitation and emission wavelength of 560 and 590 nm as described above. […]

[1] = test system: NCI-60 panel of cancer cell-lines; test: NCI-60 DTP Human Tumor Cell Line Screen at 5 doses (whole panel); details: SNB-75, K562, A498, LOX IMV1, HS 578T and MDA-MB-231 among others (Fig. 5)
Description: Compound 2 was screened by the National Cancer Institute (NCI) at 5 doses on the NCI-60 DTP Human Tumor Cell Line Screen.
Compound 2 was further screened against cancer cell lines by the National Cancer Institute (NCI). This screen was performed as per the description provided at http://dtp.nci.nih.gov/branches/btb/ivclsp.html. "The NCI 60 panel cell lines were grown in RPMI 1640 medium supplemented with 5% (v/v) fetal bovine serum and 2 mM L-glutamine at 37° C, 5 % CO2, 95 % air and 100 % relative humidity. Cells were seeded at 5,000 - 40,000 cells/well depending on their doubling time. After 24 hours of incubation, DMSO stock solutions of the compounds (400X) were added at 5 different concentrations (in […] serial dilutions). After 48 h cells were fixed with trichloroacetic acid (10% or 16% final concentration for adherent cells and suspension cells respectively) and incubated for 60 minutes at 4°C. […] The bound stain was solubilized with 10mM trizma base and determined by absorbance measurement on an automated plate reader at a wavelength of 515 nm. The percentage growth inhibition was calculated as followed, being Tz time zero measurements, C control growth measurements and Ti test growth experiments in the present of the drug. […]
Three dose response parameters were calculated for each cell line. […] Total growth inhibition (TGI) is calculated from Ti = Tz. […]

EphB4 = biological target: T1, EphB4 (Homo sapiens, UniProt P54760); test: Cellular phosphorylation assay (EphB4 autophosphorylation, sandwich ELISA); parameters: stably transfected to overexpress full-length human EphB4; host or cells: mouse embryonic fibroblast cells; details: mouse embryonic fibroblast cells overexpressing full-length human EphB4; 90 min at 37 °C; stimulated with murine ephrinB2-Fc
T1 sequence (P54760 16-987): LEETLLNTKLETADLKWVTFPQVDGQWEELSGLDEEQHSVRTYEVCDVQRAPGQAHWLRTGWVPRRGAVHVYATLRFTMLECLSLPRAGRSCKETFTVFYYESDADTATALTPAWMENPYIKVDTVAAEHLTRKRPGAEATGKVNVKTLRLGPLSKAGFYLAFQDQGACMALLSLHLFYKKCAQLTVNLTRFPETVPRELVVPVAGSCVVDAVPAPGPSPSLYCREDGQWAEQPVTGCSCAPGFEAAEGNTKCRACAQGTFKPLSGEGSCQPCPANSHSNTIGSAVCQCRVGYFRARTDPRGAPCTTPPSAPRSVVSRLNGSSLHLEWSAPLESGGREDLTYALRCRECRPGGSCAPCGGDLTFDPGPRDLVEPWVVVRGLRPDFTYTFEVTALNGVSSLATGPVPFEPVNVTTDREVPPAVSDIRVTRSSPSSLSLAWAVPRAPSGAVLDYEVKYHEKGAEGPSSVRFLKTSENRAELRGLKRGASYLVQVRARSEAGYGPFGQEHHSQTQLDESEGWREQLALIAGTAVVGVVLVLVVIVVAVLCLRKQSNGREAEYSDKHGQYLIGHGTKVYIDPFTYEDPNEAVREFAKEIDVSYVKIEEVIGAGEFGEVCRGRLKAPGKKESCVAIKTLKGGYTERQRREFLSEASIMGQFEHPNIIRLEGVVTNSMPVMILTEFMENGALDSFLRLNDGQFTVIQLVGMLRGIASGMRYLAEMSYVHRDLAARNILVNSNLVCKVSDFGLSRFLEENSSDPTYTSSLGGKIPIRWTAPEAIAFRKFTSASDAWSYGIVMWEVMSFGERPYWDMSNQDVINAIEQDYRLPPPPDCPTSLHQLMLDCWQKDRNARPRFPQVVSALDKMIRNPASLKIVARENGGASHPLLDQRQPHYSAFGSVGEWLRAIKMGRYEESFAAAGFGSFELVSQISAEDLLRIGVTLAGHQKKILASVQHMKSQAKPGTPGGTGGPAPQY
Description: Mouse embryonic fibroblast cells, stably transfected to overexpress full-length human EphB4, were plated at 4×10^4 cells/well in DMEM supplemented with 10% FCS in 48-well culture dishes. Medium was replaced by DMEM without FCS before test compounds prediluted in 100% DMSO were added (final DMSO concentration of 1 %). […] Quantification of EphB4 phosphorylation was assessed in a 96-well plate via sandwich ELISA using a myc capture antibody and an antiphosphotyrosine detection antibody.

In the case of Cc1ccc(O)cc1-n1c(N)c(C(N)=O)c2nc3ccccc3nc21 [Compound 2, 2-Amino-1-(5-hydroxy-2-methylphenyl)-1H-pyrrolo[2,3-b]quinoxaline-3-carboxamide], the GI50 (K562) was 1050 nM, the “potency (GI50 and/or TGI and/or LC50) relative to select cell-lines” value [1] was “high potency” and the pIC50 (EphB4) was greater than 8.22.
